The values below come from patent US7671054B1, “Reverse-turn mimetics and method relating thereto” (Choongwae Pharma Corporation, priority 2001, dated 2010).

The subject of the first experiment is TCF4. As to the kind of experiment: Effect on TCF4 expression (Table 9). It counts as cell-based.
Details: not given
From the text: (§1) The effects of various compounds having general formula (I) on survivin and TCF4 expression were characterized.
In general, IC50 refers to the midpoint of a concentration-inhibition curve. `Cc1cccc(CN2C[C@@H]3N(C(=O)CN(C)N3C(=O)NCc3ccccc3)[C@@H](Cc3ccc(O)cc3)C2=O)c1N(C)C` displayed an IC50 of 10.9 ± 1.3 µM.

In turn, `CN(C)c1cc(CN2C[C@@H]3N(C(=O)CN(C)N3C(=O)NCc3ccccc3)[C@@H](Cc3ccc(O)cc3)C2=O)ccc1Cl` returned an IC50 of 7.3 ± 0.6 µM.

Molecule `CN1CC(=O)N2[C@@H](CN(Cc3ccc(Cl)c4cccnc34)C(=O)[C@@H]2Cc2ccc(O)cc2)N1C(=O)NCc1ccccc1` displayed an IC50 of 2.6 ± 0.6 µM.

The molecule `COc1cccc(CN2C[C@@H]3N(C(=O)CN(C)N3C(=O)NCc3ccccc3)[C@@H](Cc3ccc(O)cc3)C2=O)c1N(C)C` gave a half-inhibitory concentration (IC50) of 5.9 ± 0.5 µM.

In turn, `CN1CC(=O)N2[C@@H](CN(Cc3cccc4cn[nH]c34)C(=O)[C@@H]2Cc2ccc(O)cc2)N1C(=O)NCc1ccccc1` had an IC50 of 4.6 ± 0.7 µM.

Molecule `CN(C)c1cccc(F)c1CN1C[C@@H]2N(C(=O)CN(C)N2C(=O)NCc2ccccc2)[C@@H](Cc2ccc(O)cc2)C1=O` showed a half-maximal inhibitory concentration (IC50) of 18.2 ± 2.4 µM.

The molecule `Cc1c(CN2C[C@@H]3N(C(=O)CN(C)N3C(=O)NCc3ccccc3)[C@@H](Cc3ccc(O)cc3)C2=O)cccc1N(C)C` displayed an IC50 of 3.9 ± 0.55 µM.

The molecule `CN1CC(=O)N2[C@@H](CN(Cc3cccc4c3ncn4C)C(=O)[C@@H]2Cc2ccc(O)cc2)N1C(=O)NCc1ccccc1` displayed an IC50 of 13.2 ± 4.1 µM.

`CN1CC(=O)N2[C@@H](Cc3ccc(O)cc3)C(=O)N(Cc3cccc4ccccc34)C[C@@]2(C)N1C(=O)NCc1ccccc1` showed an IC50 of around 2 µM.

In turn, `CN(C)c1cc(Cl)ccc1CN1C[C@@H]2N(C(=O)CN(C)N2C(=O)NCc2ccccc2)[C@@H](Cc2ccc(O)cc2)C1=O` showed an IC50 of 13.9 ± 2.3 µM.

Regarding `CN1CC(=O)N2[C@@H](CN(Cc3c(Cl)ccc4cccnc34)C(=O)[C@@H]2Cc2ccc(O)cc2)N1C(=O)NCc1ccccc1`, it took 50.4 ± 7 µM to reach half-maximal inhibition (IC50).

Consider `CC(C)N(C)c1cccc(CN2C[C@@H]3N(C(=O)CN(C)N3C(=O)NCc3ccccc3)[C@@H](Cc3ccc(O)cc3)C2=O)c1`, for which 6.3 ± 0.431 µM corresponded to half-maximal inhibition (IC50).

Another experiment deals with Survivin. The experiment can be described thus: Effect on survivin expression (Table 9). To be noted: 5 uM. The experiment is classed as cell-based.
Description: as §1
In general, inhibition refers to the relative decrease from the control value, in per cent. With `Cc1cccc(CN2C[C@@H]3N(C(=O)CN(C)N3C(=O)NCc3ccccc3)[C@@H](Cc3ccc(O)cc3)C2=O)c1N(C)C`, the inhibition at 5 µM stood at 0%.

As to `CN(C)c1cc(CN2C[C@@H]3N(C(=O)CN(C)N3C(=O)NCc3ccccc3)[C@@H](Cc3ccc(O)cc3)C2=O)ccc1Cl`, testing at 5 µM gave an inhibition of 0%.

As for `CN1CC(=O)N2[C@@H](CN(Cc3ccc(Cl)c4cccnc34)C(=O)[C@@H]2Cc2ccc(O)cc2)N1C(=O)NCc1ccccc1`, the inhibition at 5 µM came out at 86%.

Turning to `COc1cccc(CN2C[C@@H]3N(C(=O)CN(C)N3C(=O)NCc3ccccc3)[C@@H](Cc3ccc(O)cc3)C2=O)c1N(C)C`, the inhibition at 5 µM was 9%.

For the molecule `CN1CC(=O)N2[C@@H](CN(Cc3cccc4cn[nH]c34)C(=O)[C@@H]2Cc2ccc(O)cc2)N1C(=O)NCc1ccccc1`, testing at 5 µM gave an inhibition of 80%.

As to `CN(C)c1cccc(F)c1CN1C[C@@H]2N(C(=O)CN(C)N2C(=O)NCc2ccccc2)[C@@H](Cc2ccc(O)cc2)C1=O`, the inhibition at 5 µM is 0%.

`Cc1c(CN2C[C@@H]3N(C(=O)CN(C)N3C(=O)NCc3ccccc3)[C@@H](Cc3ccc(O)cc3)C2=O)cccc1N(C)C` showed an inhibition at 5 µM of 48%.

As for `CN1CC(=O)N2[C@@H](CN(Cc3cccc4c3ncn4C)C(=O)[C@@H]2Cc2ccc(O)cc2)N1C(=O)NCc1ccccc1`, the inhibition at 5 µM was found to be 45%.

In turn, `CN1CC(=O)N2[C@@H](Cc3ccc(O)cc3)C(=O)N(Cc3cccc4ccccc34)C[C@@]2(C)N1C(=O)NCc1ccccc1` yielded an inhibition at 5 µM of 100%.

`CN(C)c1cc(Cl)ccc1CN1C[C@@H]2N(C(=O)CN(C)N2C(=O)NCc2ccccc2)[C@@H](Cc2ccc(O)cc2)C1=O` displayed an inhibition at 5 µM of 6%.

As for `CN1CC(=O)N2[C@@H](CN(Cc3c(Cl)ccc4cccnc34)C(=O)[C@@H]2Cc2ccc(O)cc2)N1C(=O)NCc1ccccc1`, the inhibition at 5 µM came out at 0%.

On to `CC(C)N(C)c1cccc(CN2C[C@@H]3N(C(=O)CN(C)N3C(=O)NCc3ccccc3)[C@@H](Cc3ccc(O)cc3)C2=O)c1`, for which at 5 µM the inhibition was 5%.

The experiment is the same for the next values; noted with them: 25 uM.
Consider `Cc1cccc(CN2C[C@@H]3N(C(=O)CN(C)N3C(=O)NCc3ccccc3)[C@@H](Cc3ccc(O)cc3)C2=O)c1N(C)C`, for which the inhibition at 25 µM was found to be 68%.

Take `CN(C)c1cc(CN2C[C@@H]3N(C(=O)CN(C)N3C(=O)NCc3ccccc3)[C@@H](Cc3ccc(O)cc3)C2=O)ccc1Cl`: the inhibition at 25 µM was determined as 92%.

Regarding `CN1CC(=O)N2[C@@H](CN(Cc3ccc(Cl)c4cccnc34)C(=O)[C@@H]2Cc2ccc(O)cc2)N1C(=O)NCc1ccccc1`, testing at 25 µM gave an inhibition of 91%.

Consider `COc1cccc(CN2C[C@@H]3N(C(=O)CN(C)N3C(=O)NCc3ccccc3)[C@@H](Cc3ccc(O)cc3)C2=O)c1N(C)C`, for which at 25 µM the inhibition was 92%.

`CN1CC(=O)N2[C@@H](CN(Cc3cccc4cn[nH]c34)C(=O)[C@@H]2Cc2ccc(O)cc2)N1C(=O)NCc1ccccc1` came in with an inhibition at 25 µM of 97%.

With `CN(C)c1cccc(F)c1CN1C[C@@H]2N(C(=O)CN(C)N2C(=O)NCc2ccccc2)[C@@H](Cc2ccc(O)cc2)C1=O`, the inhibition at 25 µM came out at 6%.

Molecule `Cc1c(CN2C[C@@H]3N(C(=O)CN(C)N3C(=O)NCc3ccccc3)[C@@H](Cc3ccc(O)cc3)C2=O)cccc1N(C)C` displayed an inhibition at 25 µM of 96%.

In turn, `CN1CC(=O)N2[C@@H](CN(Cc3cccc4c3ncn4C)C(=O)[C@@H]2Cc2ccc(O)cc2)N1C(=O)NCc1ccccc1` yielded an inhibition at 25 µM of 88%.

`CN1CC(=O)N2[C@@H](Cc3ccc(O)cc3)C(=O)N(Cc3cccc4ccccc34)C[C@@]2(C)N1C(=O)NCc1ccccc1` displayed an inhibition at 25 µM of 99%.

Regarding `CN(C)c1cc(Cl)ccc1CN1C[C@@H]2N(C(=O)CN(C)N2C(=O)NCc2ccccc2)[C@@H](Cc2ccc(O)cc2)C1=O`, 25 µM produced 89% inhibition.

`CN1CC(=O)N2[C@@H](CN(Cc3c(Cl)ccc4cccnc34)C(=O)[C@@H]2Cc2ccc(O)cc2)N1C(=O)NCc1ccccc1` displayed an inhibition at 25 µM of 32%.

For `CC(C)N(C)c1cccc(CN2C[C@@H]3N(C(=O)CN(C)N3C(=O)NCc3ccccc3)[C@@H](Cc3ccc(O)cc3)C2=O)c1`, the inhibition at 25 µM turned out to be 91%.
